Source: PMC11280411, “Phytochemical Investigation of Carex praecox Schreb. and ACE-Inhibitory Activity of Oligomer Stilbenes of the Plant” (Molecules, 2024)
Where two headings read alike, the source gives them in different places. Values belong to the compound of their own block, whether it stands above or below them.

Columns and labels:
ACE from rabbit lung = molecular target: T1, ACE from rabbit lung (Oryctolagus cuniculus, UniProt P12822); test: ACE-inhibitory assay (ACE Activity Assay Kit, fluorescence); type: biochemical; settings: for inhibition at 90 µM: read-out: Inhibition at 90 μM (%) ± SD
T1 construct: ACE from rabbit lung, A6778, Sigma-Aldrich, USA; purchased Sigma-Aldrich A6778; host or cells: rabbit lung (tissue-derived)
T1 sequence (P12822 34-1310): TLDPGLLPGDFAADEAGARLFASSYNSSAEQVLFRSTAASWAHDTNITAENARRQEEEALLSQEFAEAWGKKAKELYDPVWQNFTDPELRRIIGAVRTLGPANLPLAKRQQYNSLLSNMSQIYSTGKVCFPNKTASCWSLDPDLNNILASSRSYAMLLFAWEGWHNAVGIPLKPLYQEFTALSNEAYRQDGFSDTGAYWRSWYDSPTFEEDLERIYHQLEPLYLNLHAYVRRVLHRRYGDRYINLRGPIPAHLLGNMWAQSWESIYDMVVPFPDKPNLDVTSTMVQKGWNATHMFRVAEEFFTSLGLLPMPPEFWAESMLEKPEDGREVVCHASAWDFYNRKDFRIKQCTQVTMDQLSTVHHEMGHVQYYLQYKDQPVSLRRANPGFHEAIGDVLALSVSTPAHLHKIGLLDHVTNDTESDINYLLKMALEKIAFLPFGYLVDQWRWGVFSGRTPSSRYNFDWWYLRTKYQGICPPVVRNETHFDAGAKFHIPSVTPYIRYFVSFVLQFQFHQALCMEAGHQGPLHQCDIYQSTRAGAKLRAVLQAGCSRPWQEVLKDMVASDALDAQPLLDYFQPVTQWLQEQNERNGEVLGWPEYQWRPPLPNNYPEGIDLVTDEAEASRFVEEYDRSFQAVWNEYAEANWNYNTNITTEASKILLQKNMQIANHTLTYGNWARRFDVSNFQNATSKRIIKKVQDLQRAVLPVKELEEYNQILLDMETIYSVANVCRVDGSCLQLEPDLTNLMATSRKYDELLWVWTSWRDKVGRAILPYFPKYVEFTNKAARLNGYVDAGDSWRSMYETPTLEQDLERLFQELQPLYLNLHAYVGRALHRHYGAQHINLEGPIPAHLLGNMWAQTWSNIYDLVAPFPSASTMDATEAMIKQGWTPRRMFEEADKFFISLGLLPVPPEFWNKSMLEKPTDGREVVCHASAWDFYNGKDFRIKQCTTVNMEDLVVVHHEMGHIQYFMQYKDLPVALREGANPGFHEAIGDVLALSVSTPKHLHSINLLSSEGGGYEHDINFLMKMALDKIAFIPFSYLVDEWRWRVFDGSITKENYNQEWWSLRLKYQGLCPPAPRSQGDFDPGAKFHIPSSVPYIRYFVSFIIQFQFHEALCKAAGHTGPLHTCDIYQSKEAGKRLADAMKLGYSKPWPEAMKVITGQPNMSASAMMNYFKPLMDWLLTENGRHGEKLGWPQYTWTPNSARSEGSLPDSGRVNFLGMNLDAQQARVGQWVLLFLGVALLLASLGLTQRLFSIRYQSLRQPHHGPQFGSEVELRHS

Colo 205 = test: Antiproliferative MTT assay; type: cell-based, human; settings: doxorubicin-sensitive cells; for IC50: read-out: IC50 (μM) ± SD, Colo 205
[1] = system: Colo 320/MDR-LRP expressing ABCB1; test: Antiproliferative MTT assay; settings: for IC50: Homo sapiens, COLO 320, 72 h, read-out: IC50 (μM) ± SD, Colo 320
HIV transcription = system: HIV transcription; set-up: method as in PMID 36975214; settings: T cells; cited from earlier work
[2] = molecular target: T2, C-domain of rabbit lung ACE (Oryctolagus cuniculus, UniProt P12822); test: ACE domain-specific inhibition, C-domain (FRET substrate Abz-LFK(Dnp)-OH); type: biochemical; settings: for Inhibition (%) ± SD, C-Domain: Abz-LFK(Dnp)-OH [S] = 21 μM
T2 construct: on the C- and N-domain of a rabbit lung ACE using the FRET substrates; from tissue; host or cells: rabbit lung
T2 sequence (P12822 34-1310): T1 sequence (P12822 34-1310)
Protocol: (§1) ACE domain-specific inhibition studies were performed based on previously reported methods (Carmona et al., 2006 [57]; Lunow et al., 2015 [58]). Fluorescence resonance energy transfer (FRET) substrates, Abz-SDK(Dnp)P-OH and Abz-LFK(Dnp)-OH were used for the N-domain and C-domain, respectively. […] Briefly, 40 μL of assay buffer and 60 μL of the FRET substrate solutions were preincubated for 10 min at 37 °C, with the reaction started by adding 20 μL of diluted ACE solution (5 μL ACE + 15 μL 0.1 mol/L TRIS buffer) and fluorescence measured at λex/λem = 290/450 nm every minute at 37 °C for 30 min. The corresponding KM of the FRET substrates, determined using the Michaelis–Menten equation, was used as the substrate concentration of the FRET substrates used in percent inhibition studies. The inhibitory activity of 16 on both domains was determined as described above with the 40 μL solution containing the inhibitor (inhibitor in DMSO–Assay buffer, 1:9). The control samples, which correspond to 100% enzyme activity, were prepared by replacing the inhibitor solution with TRIS buffer. Dose–effect studies on 16 using the FRET substrates were used to determine the IC50 of this compound on both ACE domains. All experiments were performed in triplicates. The ACE-inhibitory activity was calculated using the following equation:(%) = (Ab − Aa) − (Cb − Ca)/(Ab − Aa) × 100(2) where Aa is the absorbance of control wells at 0 min; Ab is the absorbance of control wells at 15 min; Ca is the absorbance of the inhibitor wells at 0 min; and Cb is the absorbance of inhibitor wells at 15 min.

[3] = molecular target: T3, N-domain of rabbit lung ACE (Oryctolagus cuniculus, UniProt P12822); test: ACE domain-specific inhibition, N-domain (FRET substrate Abz-SDK(Dnp)P-OH); type: biochemical; settings: for Inhibition (%) ± SD, N-Domain: Abz-SDK(Dnp)P-OH [S] = 72 μM
T3 construct: on the C- and N-domain of a rabbit lung ACE using the FRET substrates; from tissue; host or cells: rabbit lung
T3 sequence (P12822 34-1310): T1 sequence (P12822 34-1310)
Protocol: as §1

[4] = system: Colo 320/MDR-LRP expressing ABCB1
velvetleaf seeds = system: velvetleaf seeds; set-up: method as in doi:10.1007/BF02266955; settings: cited from earlier work

Compound: Oc1ccc(/C=C\c2cc(O)cc3c2C(c2cc(O)cc(O)c2)C(c2ccc(O)cc2)O3)cc1 (stereo not drawn) [Compound 13, cis-ε-viniferin]
- IC50 (ACE from rabbit lung; ACE from rabbit lung): 18 ± 1.2 µM
- inhibition at 90 µM (ACE from rabbit lung): 95.5 ± 2.8%
- IC50 (Colo 205; Homo sapiens, COLO 205, 72 h): > 100 µM
- IC50 [1]: > 100 µM

- IC50 (ACE from rabbit lung; ACE from rabbit lung): 15.2 ± 0.4 µM
- inhibition at 90 µM (ACE from rabbit lung; ACE from rabbit lung, 90 μM): 96.7 ± 6.3%
- IC50 (Colo 205; Homo sapiens, COLO 205, 72 h): > 100 µM
- IC50 [1]: > 100 µM
Compound: Oc1ccc(/C=C\c2cc(O)cc3c2[C@H](c2cc(O)cc4c2[C@H](c2cc(O)cc(O)c2)[C@@H](c2ccc(O)cc2)O4)[C@@H](c2ccc(O)cc2)O3)cc1 [Compound 15, Z-miyabenol C]

Compound: Oc1ccc(C2Oc3cc(O)cc4c3C2c2cc(O)cc(O)c2C(c2ccc(O)cc2)C4C2c3cc(O)cc4c3C(c3cc(O)cc(O)c3C2c2ccc(O)cc2)C(c2ccc(O)cc2)O4)cc1 (single isomer, unassigned; (-)) [Compound 16, (–)-hopeaphenol]
- IC50 (ACE from rabbit lung; ACE from rabbit lung): 7.7 ± 0.9 µM
- inhibition at 90 µM (ACE from rabbit lung; ACE from rabbit lung, 90 μM): 103 ± 1.5%
- type of ACE inhibition (enzyme-kinetic studies) (ACE from rabbit lung; Lineweaver-Burk, substrate Abz-Gly-Phe(NO2)-Pro): mixed-type inhibition
- inhibition of HIV transcription (HIV transcription): selective inhibitor of HIV transcription
- IC50 (μM) ± SD, Colo 205 (Colo 205; 72 h): notable antiproliferative activity
- IC50 (Colo 205; Homo sapiens, COLO 205, 72 h): 1.59 ± 0.11 µM
- IC50 [1]: 6.08 ± 0.24 µM
- IC50 (μM) ± SD, Colo 320 ([1]; MTT, 72 h, doxorubicin-resistant cells expressing ABCB1): notable antiproliferative activity
- times lower affinity for the C-domain than for the N-domain ([2]; C-domain versus N-domain IC50): 10 times
- Inhibition (%) ± SD, C-Domain ([2]; inhibitor 10 μM): 18.17 ± 0.5%
- Inhibition (%) ± SD, C-Domain ([2]; inhibitor 50 μM): 23.39 ± 0.6%
- IC50 ([2]; rabbit lung ACE, FRET substrate Abz-LFK(Dnp)-OH): > 300 µM
- Inhibition (%) ± SD, N-Domain ([3]; inhibitor 10 μM): 42.41 ± 0.8%
- Inhibition (%) ± SD, N-Domain ([3]; inhibitor 50 μM): 55.74 ± 3.2%
- IC50 ([3]; rabbit lung ACE, FRET substrate Abz-SDK(Dnp)P-OH): 35.7 ± 2.3 µM

Compound: bradykinin-potentiating peptide b [BPPb, reference compound]
- Inhibition (%) ± SD, C-Domain ([2]; inhibitor 200 nM): 83.20 ± 3.6%
- Inhibition (%) ± SD, N-Domain ([3]; inhibitor 200 nM): 5.2 ± 0.2%

- IC50 (ACE from rabbit lung; ACE from rabbit lung): 14.8 ± 0.8 µM
- Inhibition at 90 μM (%) ± SD (ACE from rabbit lung; ACE from rabbit lung, 90 μM): 98.5 ± 1.2%
- IC50 (Colo 205; 72 h): > 100 µM
- IC50 [4]: > 100 µM
Compound: kobophenol A [Compound 17]

Compound: Oc1ccc(/C=C/c2cc(O)cc3c2C(c2cc(O)cc(O)c2)C(c2ccc(O)cc2)O3)cc1 (stereo not drawn) [Compound 14, trans-ε-viniferin]
- IC50 (ACE from rabbit lung; ACE from rabbit lung): 14 ± 0.7 µM
- inhibition at 90 µM (ACE from rabbit lung): 107 ± 1.1%
- IC50 (Colo 205; Homo sapiens, COLO 205, 72 h): > 100 µM
- IC50 [1]: > 100 µM

- IC50 (Colo 205; Homo sapiens, COLO 205, 72 h): 0.33 ± 0.03 µM
- IC50 [1]: 0.67 ± 0.06 µM
Compound: COc1cccc2c1C(=O)c1c(O)c3c(c(O)c1C2=O)C[C@@](O)(C(=O)CO)C[C@@H]3O[C@H]1C[C@H](N)[C@H](O)[C@H](C)O1 [Doxorubicin, reference compound]

Compound: N.N.[Cl][Pt][Cl] [Cisplatin, reference compound]
- IC50 (Colo 205; 72 h): 53.9 ± 3.92 µM

- IC50 (μM) ± SD, Colo 205 (Colo 205; 72 h): notable antiproliferative activity
- IC50 (Colo 205; Homo sapiens, COLO 205, 72 h): 48.3 ± 1.54 µM
- IC50 [1]: 40.4 ± 1.84 µM
Compound: Oc1ccc(/C=C/c2cc(O)cc(O)c2)cc1 [Compound 12, trans-resveratrol]
- IC50 (μM) ± SD, Colo 320 [4]: notable antiproliferative activity

Compound: O=c1ccoc2cc(O)cc(O)c12 [Compound 22, 5,7-dihydroxychromone]
- inhibition of germination (velvetleaf seeds): inhibited the germination of velvetleaf seeds
